Test results taken from patent publication US20030095982A1, “Fraction of Cordyceps sinensis and method of isolation thereof” (priority 2001, published 2003).

System: ovalbumin (OA) induced bronchial hyperresponsiveness
Test: Pulmonary function test, OA induced bronchial hyperresponsiveness in BNR
Assay type: in vivo, brown Norway rats (BNR)
Source text: The requirements for animal models include both specificity and the capacity for developing pulmonary histopathological lesions that are similar to those found in the corresponding human disorders. In view of the above considerations, three kinds of animal models were adopted for the experiments used in developing this invention. Two were invasive method and one was non-invasive method. The first and second invasive models were BNR and guinea pig asthma model induced by ovalbumin (OA). Twenty four either BNR (weight ranging from 250˜350 g) or guinea pig (380˜500 g) were divided into three groups. Each group consisted of 8 weight-matched male animals. Both group I and group II BNR were put into a closed chamber (30×30×16 cm plastic box) with two small holes, one serving as a gas inlet and the other as a gas outlet. Two mL of 1% OA was aerosolized by nebulizer and delivered continuously into the closed chamber with a gas delivery flow of 8 l/min. The animal was exposed to OA in the chamber for 10 minutes.
A second sensitization was performed 7 days later using the same procedure. Another 7 days later, a provocation test was performed. To prevent anaphylaxis and possible death, the animals were pretreated with pyrinamine (10 mg/kg) intraperitoneally 30 minutes before the test. For provocation, the BNR inhaled 3 mL of 4% aerosolized OA by nebulizer for 10 minutes in a closed chamber, using the same procedure as for sensitization. Group I BNR or guinea pig were given Cordyceps sinensis active fraction F-4 4 mg/kg intraperitoneally 30 minutes before OA inhalation provocation. Group II control animals were treated in the same way as […], except that they were sensitized and challenged by breathing aerosolized saline instead of OA and without Cordyceps sinensis pretreatment.
In the Cordyceps sinensis treatment study, the protocol is similar to pretreatment except F-4 is administed after OA inhalation provocation.
For the lung function and acetylcholine provocation portion of the study, all animals were anesthetized with sodium pentobarbitone (50 mg/kg intraperitoneally). Jugular vein cannulation (PE-10 polyethylene tube filled with heparin, 1000 iu/mL in normal saline) and tracheostomy were performed. Lung function test was done 24 hours after the OA provocation test. The BNRs or pignea pigs were put in a body box (Model 6 Body Box, Buxco, Troy, N.Y., USA) in a supine position while the mice were put in a body box for mice (Anesthetized Body Box for Mice, Buxco, Troy, N.Y., USA). Gallamine triethiodide (4 mg/kg) was intravenously injected to induce paralysis and inhibit spontaneous breathing. A small animal ventilator set at a tidal volume of 6 mL/kg and a respiratory rate of 60 times/minute for the BNRs, 120 times/minute for the mice was used to ventilate the small animals. All animals were stable without spontaneous breathing 5 minutes after gallamine was given. Pulmonary function tests (PET) as described below were measured at baseline. Therefore, 25, 50, 75 and 100 μg/kg of acetylcholine (Ach) were given intravenously at 30 minute intervals. PETs were done 5 seconds after each dose of acetylcholine. Before each successive dose of Ach, the flow volume loop returned to baseline.
The airway opening pressure (PaO) was measured by a Gould pressure transducer at the tracheotomy. Respiratory flow was measured by a DP-45-14 differential pressure transducer. When tidal breathing was examined, 3-layer 325-mesh wire screen was used to measure the pressure difference. When a maximal forced expiratory maneuver (MFEM) was performed, a 6-layer 325-mesh wire screen was used to measure the pressure difference.
For the MFEM, the lungs were inflated to total lung capacity 9TLC, lung volume at PaO=35 cm H2O) 3 times; the inflation was regulated by a solenoid valve. At peak volume during the third inflation, the inflation valve was shut off and another solenoid valve was opened immediately for deflation. […]

[1] = baseline, 4 mg/Kg intraperitoneally 30 minutes before OA inhalation provocation, mean±SD
[2] = pretreated before OA inhalation provocation (group I) vs OA-treated (group II), Ach doses higher than 25 μg/kg

CC(C)[C@@H](C)C=C[C@@H](C)[C@H]1CC[C@H]2C3=C[C@@H](O)[C@@]4(O)C[C@@H](O)CC[C@]4(C)[C@H]3CC[C@]12C [F8, (24R)-ergosta-7,22-diene-3β, 5α, 6β,-triol]
Cdyn (total dynamic lung compliance) [1]: 0.53 ± 0.05 mL/cm H2O
MFEF 25% [1]: 35.3 ± 4.5 mL/s
MFEF 50% [1]: 75.7 ± 4.6 mL/s
MFEF 75% [1]: 101.5 ± 4.9 mL/s
PaO (airway opening pressure at tidal breathing) [1]: 4.3 ± 0.6 cmH2O
Peak flow [1]: 105.6 ± 4.7 mL/s
Total lung capacity [1]: 15.4 ± 1.5 mL
percentage of baseline MFEF 25% TLC, Ach dose response [2]: group II was significantly lower then group I
percentage of baseline MFEF 50% TLC, Ach dose response [2]: group II was significantly lower then group I
PD20 Ach (dose of Ach producing a 20% drop) for MFEF 50% and MFEF 25% (treatment study (administered after OA inhalation provocation), group I vs OA-treated group II): significantly (p<0.001) lower in group II than in the other 2 groups
